Measurements: patent US12059422B2 (MEI Pharma, Inc., priority 2011, dated 2024)

Assays:
PI3Kγ = target: T1, PI3Kγ (Mus musculus, UniProt Q9JHG7); experiment: ELISA assay for PI3Kγ: in-cell ELISA, phosphorylation of AKT (Ser473) in RAW 264.7 cells; type: cell-based; settings: cellular, pAKT (Ser473), C5a stimulation, read-out: IC50 p110γ
T1 construct: endogenous in cells; host or cells: RAW 264.7 (ATCC #TIB-71)
Method: PI3K gamma (PI3Kγ) activity was determined by measuring the phosphorylation of AKT (Ser473) using an in-cell ELISA assay. RAW 264.7 (mouse macrophage) cells were obtained from ATCC (ATCC #TIB-71). Growth medium was DMEM (CellGro #CV-10-013-CV) supplemented with 10% fetal bovine serum, 100 IU/mL penicillin, 100 μg/mL streptomycin, and 1×MEM non-essential amino acids. Phosphate buffered saline (PBS) contained 2.7 M NaCl, 54 mM KCl, 86 mM […] (dibasic, anhydrous), and 28 mM […] (monobasic, anhydrous) at pH 7.2. Stimulation mixture (10×) was 500 ng/mL recombinant human complement component C5a (R&D systems #2037-C5-025) diluted in serum-free DMEM medium (CellGro #CV-10-013-CV). Compounds for testing were dissolved and serially diluted in 100% DMSO (total of 10 concentrations), then diluted in serum-free DMEM to 2× final assay concentration. Fixative solution (2×) was 8% formaldehyde (Amresco #M134) diluted in PBS. Permeabilization solution was PBS supplemented with 0.10% Triton X-100. Blocking buffer was obtained from LiCor (LiCor #927-40000). Wash buffer was PBS supplemented with 0.1% Tween-20. Primary antibody solution was rabbit anti-pAKT^S473 monoclonal antibody (Cell Signaling #4060) and mouse anti-total S6 (Santa Cruz #74459) diluted 1:500 and 1:2000, respectively, in the blocking buffer. Secondary antibody solution was IRDye 800CW-conjugated goat anti-rabbit IgG (LiCor #926-32211) and IRDye 680LT-conjugated goat anti-mouse IgG (LiCor #926-68020) diluted 1:1000 and 1:2000, respectively, in the blocking buffer.
RAW 264.7 cells were subcultured in growth medium and seeded into flat, clear bottom, 96-well plates (Corning #3904) at 70000 cells/well, then incubated overnight in a 37° C., 5% CO2 incubator. Growth medium in plates was replaced with 100 μL/well serum-free DMEM and incubated overnight in a 37° C., 5% CO2 incubator. Fresh serum-free DMEM (50 μL/well) was added to plates. Compound treatment was performed by adding 50 μL/well of 2× compound mixture to plates and incubating for 2 hrs at 37° C., 5% CO2, after which 11 μL/well of 10× stimulation mixture was added and plates were incubated for 3 min at 37° C., 5% CO2. Fixation was performed by adding 110 μL/well of 2× fixative solution to plates and incubating for 20 min at room temperature. Permeabilization was performed by replacing fixation solution with 150 μL/well permeabilization solution and incubating for 10 min at room temperature. Permeabilization was repeated (for a total of 2 times). Permeabilization solution was replaced with 100 μL/well blocking buffer and plates were incubated for 1 hr at room temperature, after which 100 μL/well of primary antibody solution was added and plates were incubated overnight at 4° C. Plates were washed with wash buffer, after which 100 μL/well of secondary antibody solution was added to the plates and incubated in the dark for 1 hr at room temperature. Plates were washed with wash buffer, followed by awash with PBS. After completely removing PBS, plates were scanned on the Licor Odyssey Imager. Images were quantified using Licor Odyssey application software. IC50 values were determined by curve fitting using a Collaborative Drug Discovery database (www.collaborativedrug.com).

PI3K gamma = target: T2, PI3K gamma (Homo sapiens, UniProt P48736); experiment: Luciferase-based luminescence assay (ADP Glo), PI3K gamma enzymatic activity; type: biochemical; settings: inhibition of enzymatic activity, 25 μM ATP, read-out: IC50 p110γ
T2 construct: purchased Invitrogen Corp., Carlsbad, CA, USA
T2 sequence (P48736 whole entry, species assumed): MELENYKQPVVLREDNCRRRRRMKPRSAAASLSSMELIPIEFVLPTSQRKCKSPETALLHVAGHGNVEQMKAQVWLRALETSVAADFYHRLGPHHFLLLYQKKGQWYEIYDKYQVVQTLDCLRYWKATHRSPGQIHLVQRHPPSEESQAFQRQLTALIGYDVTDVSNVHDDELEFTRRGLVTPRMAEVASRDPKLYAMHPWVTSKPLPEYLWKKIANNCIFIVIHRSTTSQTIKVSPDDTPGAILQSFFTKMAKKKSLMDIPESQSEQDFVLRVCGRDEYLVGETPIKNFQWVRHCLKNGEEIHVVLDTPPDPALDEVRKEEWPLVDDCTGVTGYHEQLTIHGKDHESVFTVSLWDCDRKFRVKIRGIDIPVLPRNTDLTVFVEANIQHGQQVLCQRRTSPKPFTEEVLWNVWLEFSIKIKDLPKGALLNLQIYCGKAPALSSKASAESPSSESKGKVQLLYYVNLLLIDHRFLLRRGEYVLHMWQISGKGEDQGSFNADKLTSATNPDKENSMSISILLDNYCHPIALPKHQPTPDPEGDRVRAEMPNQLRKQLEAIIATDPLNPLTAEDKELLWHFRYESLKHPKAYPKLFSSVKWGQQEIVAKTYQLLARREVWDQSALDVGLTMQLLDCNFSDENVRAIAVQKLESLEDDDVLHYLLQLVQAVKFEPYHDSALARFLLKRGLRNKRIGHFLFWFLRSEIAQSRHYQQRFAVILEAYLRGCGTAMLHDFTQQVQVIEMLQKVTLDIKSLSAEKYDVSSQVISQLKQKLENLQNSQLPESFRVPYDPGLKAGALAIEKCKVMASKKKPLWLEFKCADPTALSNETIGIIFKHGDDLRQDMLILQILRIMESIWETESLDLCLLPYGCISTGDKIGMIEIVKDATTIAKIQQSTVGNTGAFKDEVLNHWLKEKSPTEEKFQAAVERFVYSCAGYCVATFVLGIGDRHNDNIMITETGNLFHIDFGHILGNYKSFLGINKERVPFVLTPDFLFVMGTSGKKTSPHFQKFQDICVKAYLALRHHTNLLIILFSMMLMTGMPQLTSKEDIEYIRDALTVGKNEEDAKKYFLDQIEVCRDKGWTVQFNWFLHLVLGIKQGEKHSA
In short: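 Final enzyme 4.8 nM PI3K beta or 7.6 nM PI3K gamma, with 50 μM PIP2 and 25 μM ATP, 1 h in HEPES pH 7.5 buffer with MgCl2, EGTA, NaCl, CHAPS and DTT. ADP formed measured by ADP-Glo luminescence; IC50 from 10-point curve fits.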

T1 sequence (Q9JHG7 whole entry): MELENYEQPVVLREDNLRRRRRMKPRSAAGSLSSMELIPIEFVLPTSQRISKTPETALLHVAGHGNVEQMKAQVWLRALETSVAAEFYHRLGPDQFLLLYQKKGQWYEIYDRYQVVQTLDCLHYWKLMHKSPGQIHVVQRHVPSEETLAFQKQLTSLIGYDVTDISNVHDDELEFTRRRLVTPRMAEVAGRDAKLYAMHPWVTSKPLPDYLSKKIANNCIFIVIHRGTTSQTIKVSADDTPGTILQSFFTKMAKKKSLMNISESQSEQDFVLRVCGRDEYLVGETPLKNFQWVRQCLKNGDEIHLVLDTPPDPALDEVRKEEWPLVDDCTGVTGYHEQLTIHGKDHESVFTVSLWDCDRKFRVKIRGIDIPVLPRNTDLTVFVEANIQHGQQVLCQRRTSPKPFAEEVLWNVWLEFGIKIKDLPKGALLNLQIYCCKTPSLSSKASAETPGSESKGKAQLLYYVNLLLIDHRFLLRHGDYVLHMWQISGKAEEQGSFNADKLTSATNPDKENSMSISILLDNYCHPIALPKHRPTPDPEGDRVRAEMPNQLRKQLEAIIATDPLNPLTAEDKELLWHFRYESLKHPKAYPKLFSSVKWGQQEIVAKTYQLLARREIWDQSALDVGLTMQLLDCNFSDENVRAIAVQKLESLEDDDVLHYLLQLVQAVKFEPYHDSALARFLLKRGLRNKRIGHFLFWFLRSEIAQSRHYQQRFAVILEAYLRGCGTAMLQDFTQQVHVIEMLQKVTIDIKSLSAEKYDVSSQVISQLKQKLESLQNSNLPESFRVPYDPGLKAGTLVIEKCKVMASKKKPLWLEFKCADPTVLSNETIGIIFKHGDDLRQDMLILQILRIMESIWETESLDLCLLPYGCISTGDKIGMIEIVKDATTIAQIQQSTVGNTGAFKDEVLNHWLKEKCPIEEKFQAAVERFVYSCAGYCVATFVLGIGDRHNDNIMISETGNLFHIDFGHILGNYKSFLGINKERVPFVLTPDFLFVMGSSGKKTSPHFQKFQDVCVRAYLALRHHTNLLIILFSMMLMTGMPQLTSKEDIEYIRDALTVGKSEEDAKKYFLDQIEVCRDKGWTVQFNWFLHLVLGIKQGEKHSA

SMILES | IC50 (PI3Kγ) [nM] | IC50 (PI3K gamma) [nM]
Cn1nccc1-c1ccccc1CC(C)(C)Nc1nc(N2CCOCC2)nc(-n2c(C(F)F)nc3ccccc32)n1 [Compound A46, 4-(2-(difluoromethyl)-1H-benzo[d]imidazol-1-yl)-N-(2-methyl-1-(2-(1-methyl-1H-pyrazol-5-yl)phenyl)propan-2-yl)-6-morpholino-1,3,5-triazin-2-amine] | 200 to 500 | > 500
Cc1cccc(CC(C)(C)Nc2nc(N3CCOCC3)nc(-n3c(C(F)F)nc4ccccc43)n2)c1 [Compound A49, 4-(2-(difluoromethyl)-1H-benzo[d]imidazol-1-yl)-N-(2-methyl-1-m-tolylpropan-2-yl)-6-morpholino-1,3,5-triazin-2-amine] | 200 to 500 | 200 to 500
COc1cc(CC(C)(C)Nc2nc(N3CCOCC3)nc(-n3c(C(F)F)nc4ccccc43)n2)ccc1F [Compound A50, 4-(2-(difluoromethyl)-1H-benzo[d]imidazol-1-yl)-N-(1-(4-fluoro-3-methoxyphenyl)-2-methylpropan-2-yl)-6-morpholino-1,3,5-triazin-2-amine] | 200 to 500 | > 500
CC(C)(Cc1ccc(F)cc1F)Nc1nc(N2CCOCC2)nc(-n2c(C(F)F)nc3ccccc32)n1 [Compound A51, 4-(2-(difluoromethyl)-1H-benzo[d]imidazol-1-yl)-N-(1-(2,4-difluorophenyl)-2-methylpropan-2-yl)-6-morpholino-1,3,5-triazin-2-amine] | 100 to 200 | 200 to 500
CC(C)(Cc1c(F)cccc1F)Nc1nc(N2CCOCC2)nc(-n2c(C(F)F)nc3ccccc32)n1 [Compound A52, 4-(2-(difluoromethyl)-1H-benzo[d]imidazol-1-yl)-N-(1-(2,6-difluorophenyl)-2-methylpropan-2-yl)-6-morpholino-1,3,5-triazin-2-amine] | 100 to 200 | ≤ 100
CC(C)(Cc1ccccc1-c1ccccc1F)Nc1nc(N2CCOCC2)nc(-n2c(C(F)F)nc3ccccc32)n1 [Compound A59, 4-(2-(difluoromethyl)-1H-benzo[d]imidazol-1-yl)-N-(1-(2′-fluorobiphenyl-2-yl)-2-methylpropan-2-yl)-6-morpholino-1,3,5-triazin-2-amine] | > 500 | > 500
Cc1ccccc1-c1ccccc1CC(C)(C)Nc1nc(N2CCOCC2)nc(-n2c(C(F)F)nc3ccccc32)n1 [Compound A60, 4-(2-(difluoromethyl)-1H-benzo[d]imidazol-1-yl)-N-(2-methyl-1-(2′-methylbiphenyl-2-yl)propan-2-yl)-6-morpholino-1,3,5-triazin-2-amine] | > 500 | > 500
CC(C)(Cc1ccccc1-c1ccccc1Cl)Nc1nc(N2CCOCC2)nc(-n2c(C(F)F)nc3ccccc32)n1 [Compound A61, 4-(2-(difluoromethyl)-1H-benzo[d]imidazol-1-yl)-N-(1-(6′-chlorobiphenyl-2-yl)-2-methylpropan-2-yl)-6-morpholino-1,3,5-triazin-2-amine] | > 500 | > 500
CC(C)(Cc1ccccc1-c1cccnc1F)Nc1nc(N2CCOCC2)nc(-n2c(C(F)F)nc3ccccc32)n1 [Compound A62] | 200 to 500 | > 500
CC(C)(Cc1ccccc1-c1cncnc1)Nc1nc(N2CCOCC2)nc(-n2c(C(F)F)nc3ccccc32)n1 [Compound A63, 4-(2-(difluoromethyl)-1H-benzo[d]imidazol-1-yl)-N-(2-methyl-1-(2-(pyrimidin-5-yl)phenyl)propan-2-yl)-6-morpholino-1,3,5-triazin-2-amine] | > 500 | 200 to 500
CN1CCN(c2cc(-c3ccccc3CC(C)(C)Nc3nc(N4CCOCC4)nc(-n4c(C(F)F)nc5ccccc54)n3)ccn2)CC1 [Compound A64, 4-(2-(difluoromethyl)-1H-benzo[d]imidazol-1-yl)-N-(2-methyl-1-(2-(2-(4-methylpiperazin-1-yl)pyridin-4-yl)phenyl)propan-2-yl)-6-morpholino-1,3,5-triazin-2-amine] | > 500 | > 500
CC(C)(Cc1ccccc1-c1cccc(CN2CCOCC2)c1)Nc1nc(N2CCOCC2)nc(-n2c(C(F)F)nc3ccccc32)n1 [Compound A65, 4-(2-(difluoromethyl)-1H-benzo[d]imidazol-1-yl)-N-(2-methyl-1-(3′-(morpholinomethyl)biphenyl-2-yl)propan-2-yl)-6-morpholino-1,3,5-triazin-2-amine] | 200 to 500 | 100 to 200
COc1cccc(-c2ccccc2CC(C)(C)Nc2nc(N3CCOCC3)nc(-n3c(C(F)F)nc4ccccc43)n2)c1 [Compound A66, 4-(2-(difluoromethyl)-1H-benzo[d]imidazol-1-yl)-N-(1-(3′-methoxybiphenyl-2-yl)-2-methylpropan-2-yl)-6-morpholino-1,3,5-triazin-2-amine] | > 500 | > 500
COc1ccc(-c2ccccc2CC(C)(C)Nc2nc(N3CCOCC3)nc(-n3c(C(F)F)nc4ccccc43)n2)cc1 [Compound A67, 4-(2-(difluoromethyl)-1H-benzo[d]imidazol-1-yl)-N-(1-(4′-methoxybiphenyl-2-yl)-2-methylpropan-2-yl)-6-morpholino-1,3,5-triazin-2-amine] | > 500 | > 500
CC(C)(Cc1ccccc1C1CCNCC1)Nc1nc(N2CCOCC2)nc(-n2c(C(F)F)nc3ccccc32)n1 [Compound A68, 4-(2-(difluoromethyl)-1H-benzo[d]imidazol-1-yl)-N-(2-methyl-1-(2-(piperidin-4-yl)phenyl)propan-2-yl)-6-morpholino-1,3,5-triazin-2-amine] | 200 to 500 | > 500
CCN1CCC(c2ccccc2CC(C)(C)Nc2nc(N3CCOCC3)nc(-n3c(C(F)F)nc4ccccc43)n2)CC1 [Compound A70, 4-(2-(difluoromethyl)-1H-benzo[d]imidazol-1-yl)-N-(1-(2-(1-ethylpiperidin-4-yl)phenyl)-2-methylpropan-2-yl)-6-morpholino-1,3,5-triazin-2-amine] | > 500 | > 500
CC(C)N1CCC(c2ccccc2CC(C)(C)Nc2nc(N3CCOCC3)nc(-n3c(C(F)F)nc4ccccc43)n2)CC1 [Compound A71, 4-(2-(difluoromethyl)-1H-benzo[d]imidazol-1-yl)-N-(1-(2-(1-isopropylpiperidin-4-yl)phenyl)-2-methylpropan-2-yl)-6-morpholino-1,3,5-triazin-2-amine] | > 500 | > 500
CC(=O)N1CCC(c2ccccc2CC(C)(C)Nc2nc(N3CCOCC3)nc(-n3c(C(F)F)nc4ccccc43)n2)CC1 [Compound A72, 4-(2-(difluoromethyl)-1H-benzo[d]imidazol-1-yl)-N-(2-methyl-1-(2-(1-acetylpiperidin-4-yl)phenyl)propan-2-yl)-6-morpholino-1,3,5-triazin-2-amine] | ≤ 100 | ≤ 100
CC(C)(Cc1ccccc1C1CCN(S(C)(=O)=O)CC1)Nc1nc(N2CCOCC2)nc(-n2c(C(F)F)nc3ccccc32)n1 [Compound A73, 4-(2-(difluoromethyl)-1H-benzo[d]imidazol-1-yl)-N-(2-methyl-1-(2-(1-(methylsulfonyl)piperidin-4-yl)phenyl)propan-2-yl)-6-morpholino-1,3,5-triazin-2-amine] | ≤ 100 | 100 to 200
CC(C)(Cc1ccccc1C1CCNC1)Nc1nc(N2CCOCC2)nc(-n2c(C(F)F)nc3ccccc32)n1 (stereo not shown) [Compound A74, 4-(2-(difluoromethyl)-1H-benzo[d]imidazol-1-yl)-N-(2-methyl-1-(2-(pyrrolidin-3-yl)phenyl)propan-2-yl)-6-morpholino-1,3,5-triazin-2-amine] | 200 to 500 | > 500
